Source: publication PMC7179274, “6′-β-Fluoro-Homoaristeromycin and 6′-Fluoro-Homoneplanocin A Are Potent Inhibitors of Chikungunya Virus Replication through Their Direct Effect on Viral Nonstructural Protein 1” (Antimicrobial Agents and Chemotherapy, 2020)
Entries after “also recorded” stand apart in the source; their conditions may differ. Where two headings read alike, the source gives them in different places.

Key:
[1] = test system: CHIKV; test: Viral load reduction (single-cycle dose response) assay, CHIKV
[2] = target: host enzyme SAH hydrolase; set-up: method as in PMID 26010585; conditions: in vitro; read-out: 50% inhibitory concentration, SAH hydrolase; cited from earlier work
[3] = test system: VeroE6 cells; test: Cytotoxicity in uninfected cells (MTS/PMS) of the CPE reduction assay
[4] = test system: rCHIKV G230R+K299E and rCHIKV G230R+K299E+*524R; format: cell-based, Chikungunya virus; conditions: 10 μM, both mutant viruses, MOI 1
[5] = test system: SINV; test: CPE reduction assay, SINV; conditions: VeroE6 cells, MOI 0.025
[6] = test system: CHIKV; test: CPE reduction assay, CHIKV
[7] = target: T1, wt SFV nsP1 (Semliki forest virus, UniProt P08411); test: nsP1 enzymatic activity assay (m7GMP-nsP1 intermediate formation), wt; conditions: for Inhibition of wt SFV nsP1: 10 μM SAM
T1 sequence (P08411 1-537): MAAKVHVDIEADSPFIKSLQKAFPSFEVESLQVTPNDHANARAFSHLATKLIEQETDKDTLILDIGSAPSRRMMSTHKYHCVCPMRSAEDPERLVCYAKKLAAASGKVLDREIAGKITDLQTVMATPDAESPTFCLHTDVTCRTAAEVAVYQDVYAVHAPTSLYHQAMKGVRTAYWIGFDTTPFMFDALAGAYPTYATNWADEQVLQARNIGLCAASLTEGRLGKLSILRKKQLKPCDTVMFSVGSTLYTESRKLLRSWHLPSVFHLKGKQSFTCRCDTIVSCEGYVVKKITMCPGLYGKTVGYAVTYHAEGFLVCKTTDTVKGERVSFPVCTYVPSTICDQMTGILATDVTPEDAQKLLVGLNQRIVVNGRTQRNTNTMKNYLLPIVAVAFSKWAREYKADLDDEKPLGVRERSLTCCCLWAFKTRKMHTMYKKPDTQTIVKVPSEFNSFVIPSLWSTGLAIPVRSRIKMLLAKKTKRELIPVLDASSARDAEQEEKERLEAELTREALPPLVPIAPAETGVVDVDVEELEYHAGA

[8] = test system: rCHIKV mutants; test: microbe, parasite or virus in culture; format: cell-based, Chikungunya virus; conditions: for EC50: read-out: Mean EC50 ± SD
[9] = test system: SFV; test: CPE reduction assay, SFV
[10] = test system: FHNA-resistant CHIKV variants; format: cell-based; conditions: for Fold resistance: EC50 variant/EC50 wt; for EC50: read-out: Mean EC50 ± SD
[11] = test system: SFV; test: Viral load reduction (single-cycle dose response) assay, SFV; format: cell-based, Semliki Forest virus; conditions: 12.5 μM, VeroE6, MOI 5, 8 hpi, plaque assay
[12] = test system: CHIKV; test: Time-of-drug-addition assay, CHIKV; conditions: 10 μM, pretreated or treated early (−12 to 4 h)

Nc1ncnc2c1ncn2C1C(F)=C(CCO)C(O)C1O (stereo not shown) [FHNA, 6′-fluoro-homoneplanocin A]
Reduction of CHIKV infectious progeny titers vs infected untreated cells ([1]; 5 μM, VeroE6, MOI 1, 20 hpi, plaque assay): 2.5 log10
Levels of genomic, subgenomic and negative-strand CHIKV RNA ([1]; 0.1 to 10 μM, 8 hpi, in-gel hybridization): reduced in a dose-dependent manner
IC50 [2]: 910 nM
CC50 ([3]; read-out: CC50 (CHIKV assay), CHIKV assay format): > 250000 nM
CC50 ([3]; read-out: CC50 (SFV assay), SFV assay format): > 250000 nM
CC50 ([3]; read-out: CC50 (SINV assay), SINV assay format): > 250000 nM
Infectious progeny titers lower than untreated controls ([4]; 12 hpi): at least 1.5 log10
Infectious progeny titers lower than untreated controls ([4]; 24 hpi): ≥ 1.2 log10
Protection against SINV infection [5]: did not confer protection; also recorded: not sensitive
SI (CHIKV) ([6]; CC50/EC50): >1,000
EC50 ([6]; read-out: EC50 (CHIKV), VeroE6 cells, MOI 0.005, MTS at 96 hpi, mean ± SD): 180 ± 110 nM
Effect on formation of m7GMP-nsP1 intermediate ([7]; 50 μM to 1 mM, 100 μM SAM, 5 mM DTT): did not observe any inhibitory effect
Inhibition of wt SFV nsP1 ([7]; 1 mM compound + 1 mM NAD+, absence of DTT): more than 50%
Effect on formation of m7GMP-nsP1 intermediate at low SAM ([7]; 1 mM compound, 5 or 10 μM SAM): no direct inhibitory effect
Inhibition of wt SFV nsP1 ([7]; 1 mM, nonreducing conditions (absence of DTT)): more than 40%
Fold resistance ([8]; rCHIKV nsP1-G230R + nsP1-K299E + nsP3-*524R, EC50 mutant/EC50 wt): 122
EC50 ([8]; rCHIKV nsP1-G230R + nsP1-K299E + nsP3-*524R): 25600 ± 100 nM
Fold resistance ([8]; rCHIKV nsP1-G230R + nsP1-K299E, EC50 mutant/EC50 wt): 87
EC50 ([8]; rCHIKV nsP1-G230R + nsP1-K299E): 18200 ± 4200 nM
Fold resistance ([8]; rCHIKV nsP1-G230R, EC50 mutant/EC50 wt): 2
EC50 ([8]; rCHIKV nsP1-G230R): 500 ± 330 nM
Fold resistance ([8]; rCHIKV nsP1-K299E, EC50 mutant/EC50 wt): 2
EC50 ([8]; rCHIKV nsP1-K299E): 500 ± 80 nM
Fold resistance ([8]; rCHIKV nsP1-L455P, EC50 mutant/EC50 wt): 5
EC50 ([8]; rCHIKV nsP1-L455P): 1100 ± 1100 nM
Fold resistance ([8]; rCHIKV nsP1-R171Q + nsP2-A511S + nsP3-H342Q, EC50 mutant/EC50 wt): 49
EC50 ([8]; rCHIKV nsP1-R171Q + nsP2-A511S + nsP3-H342Q): 10200 ± 2600 nM
Fold resistance ([8]; rCHIKV nsP1-R171Q + nsP2-A511S, EC50 mutant/EC50 wt): 33
EC50 ([8]; rCHIKV nsP1-R171Q + nsP2-A511S): 6900 ± 2600 nM
Fold resistance ([8]; rCHIKV nsP1-R171Q + nsP3-A137V, EC50 mutant/EC50 wt): 18
EC50 ([8]; rCHIKV nsP1-R171Q + nsP3-A137V): 3900 ± 1300 nM
Fold resistance ([8]; rCHIKV nsP1-R171Q, EC50 mutant/EC50 wt): 3
EC50 ([8]; rCHIKV nsP1-R171Q): 580 ± 370 nM
Fold resistance ([8]; rCHIKV nsP2-A511S + nsP3-H342Q, EC50 mutant/EC50 wt): 1
Fold resistance ([8]; rCHIKV nsP2-A511S, EC50 mutant/EC50 wt): 9
EC50 ([8]; rCHIKV nsP2-A511S): 1900 ± 600 nM
Fold resistance ([8]; rCHIKV nsP2-T675A + nsP3-H342Q (H342Q reverted back to wt), EC50 mutant/EC50 wt): 36
EC50 ([8]; rCHIKV nsP2-T675A + nsP3-H342Q (H342Q reverted back to wt)): 7600 ± 200 nM
Fold resistance ([8]; rCHIKV nsP2-T675A + nsP3-H342Q + nsP3-*524R, EC50 mutant/EC50 wt): 48
EC50 ([8]; rCHIKV nsP2-T675A + nsP3-H342Q + nsP3-*524R): 10100 ± 6800 nM
Fold resistance ([8]; rCHIKV nsP2-T675A, EC50 mutant/EC50 wt): 4
EC50 ([8]; rCHIKV nsP2-T675A): 800 ± 80 nM
Fold resistance ([8]; rCHIKV nsP3-*524R, EC50 mutant/EC50 wt): 40
EC50 ([8]; rCHIKV nsP3-*524R): 8500 ± 2300 nM
Fold resistance ([8]; rCHIKV nsP3-G177R, EC50 mutant/EC50 wt): 2
EC50 ([8]; rCHIKV nsP3-G177R): 510 ± 20 nM
Fold resistance ([8]; rCHIKV nsP3-H342Q, EC50 mutant/EC50 wt): 5
EC50 ([8]; rCHIKV nsP3-H342Q): 940 ± 10 nM
Fold resistance ([8]; rCHIKV wt, EC50 recombinant mutant/EC50 wt): 1
EC50 ([8]; rCHIKV wt, VeroE6, MOI 0.05): 210 ± 70 nM
SI (SFV) ([9]; CC50/EC50): >48
EC50 ([9]; read-out: EC50 (SFV), VeroE6 cells, MOI 0.025, MTS at 40 hpi, mean ± SD): 5200 ± 3200 nM
Fold resistance ([10]; CHIKV wt): 1
EC50 ([10]; CHIKV wt, VeroE6, MOI 0.05): 140 ± 10 nM
Fold resistance ([10]; variant 1a): 100
EC50 ([10]; variant 1a): 14100 ± 10 nM
Fold resistance ([10]; variant 1b): 24
EC50 ([10]; variant 1b): 3400 ± 600 nM
Fold resistance ([10]; variant 2a): 12
EC50 ([10]; variant 2a): 1700 ± 700 nM
Fold resistance ([10]; variant 2b): 21
EC50 ([10]; variant 2b): 3000 ± 600 nM
Fold resistance ([10]; variant 3): 9
EC50 ([10]; variant 3): 1300 ± 800 nM
Fold resistance ([10]; variant 4): 27
EC50 ([10]; variant 4): 3800 ± 300 nM
Fold resistance ([10]; variant 5): 13
EC50 ([10]; variant 5): 1800 ± 800 nM
Reduction of SFV infectious progeny [11]: > 1 log10
CHIKV specific infectivity (genome copies vs infectious virus yield) [12]: decrease in specific infectivity; also recorded: reduction in CHIKV-specific infectivity
